Measured values: the NIST ThermoML archive (doi:10.1021/je049579x)
“And” between values parts separate entries of the source, which are not always exact repeats. Equal values may be shown once. Numbers after ± are expanded uncertainties.

Conditions: Crystal, Torsion effusion method

[Br-].[Br-].[Br-].[Lu+3] [lutetium tribromide]
Conditions | vapor or sublimation pressure
903 K | 6.3e-05 ± 1.3e-05 kPa
908 K | 7.9e-05 ± 1.1e-05 kPa
909 K | 9.3e-05 ± 1.1e-05 kPa
910 K | 6.3e-05 ± 9e-06 kPa and 9.3e-05 ± 9e-06 kPa
914 K | 9.3e-05 ± 1.3e-05 kPa
917 K | 9.3e-05 ± 2.2e-05 kPa
918 K | 0.000141 ± 2.3e-05 kPa and 0.000126 ± 2.3e-05 kPa
919 K | 0.000126 ± 1.9e-05 kPa
920 K | 0.00011 ± 1.1e-05 kPa
921 K | 9.3e-05 ± 1e-05 kPa and 0.00011 ± 1.1e-05 kPa
924 K | 0.000141 ± 3.1e-05 kPa
926 K | 0.000126 ± 2.6e-05 kPa and 0.000191 ± 2.6e-05 kPa
927 K | 0.000191 ± 2.6e-05 kPa
929 K | 0.000204 ± 1.7e-05 kPa
930 K | 0.000158 ± 1.8e-05 kPa and 0.000126 ± 1.7e-05 kPa
931 K | 0.000158 ± 4.3e-05 kPa
935 K | 0.000191 ± 1.3e-05 kPa
936 K | 0.000234 ± 4.1e-05 kPa
937 K | 0.000282 ± 4e-05 kPa
938 K | 0.000251 ± 4.2e-05 kPa and 0.000219 ± 4.2e-05 kPa and 0.000282 ± 4.2e-05 kPa
939 K | 0.000282 ± 4.3e-05 kPa
940 K | 0.000191 ± 4.7e-05 kPa
946 K | 0.000316 ± 5.8e-05 kPa
947 K | 0.00038 ± 5.7e-05 kPa
948 K | 0.00038 ± 5.9e-05 kPa [middle of 4 runs]
950 K | 0.000407 ± 6.2e-05 kPa and 0.000282 ± 5.7e-05 kPa
956 K | 0.000427 ± 7.5e-05 kPa and 0.000437 ± 7.4e-05 kPa and 0.000501 ± 7.2e-05 kPa
957 K | 0.000562 ± 7.1e-05 kPa
958 K | 0.00049 ± 7.1e-05 kPa and 0.000468 ± 7.1e-05 kPa
960 K | 0.000603 ± 7.3e-05 kPa and 0.000427 ± 6.3e-05 kPa
965 K | 0.000676 ± 9.7e-05 kPa
966 K | 0.000617 ± 9.7e-05 kPa and 0.000794 ± 9.4e-05 kPa and 0.000724 ± 9.5e-05 kPa
967 K | 0.000661 ± 9.3e-05 kPa and 0.000794 ± 9.5e-05 kPa
968 K | 0.000661 ± 8.9e-05 kPa
969 K | 0.000794 ± 5.8e-05 kPa and 0.000617 ± 5.2e-05 kPa
973 K | 0.000912 ± 0.0001 kPa
975 K | 0.000813 ± 0.00013 kPa
976 K | 0.001096 ± 0.00013 kPa and 0.001047 ± 0.00013 kPa
977 K | 0.001072 ± 0.00017 kPa
978 K | 0.000912 ± 0.0002 kPa and 0.000933 ± 0.0002 kPa
979 K | 0.001096 ± 0.00019 kPa and 0.000912 ± 0.00019 kPa
981 K | 0.001175 ± 4.2e-05 kPa
984 K | 0.001445 ± 0.00017 kPa
986 K | 0.001202 ± 0.00023 kPa and 0.001413 ± 0.00022 kPa and 0.001445 ± 0.00022 kPa
987 K | 0.001318 ± 0.00023 kPa
988 K | 0.001288 ± 0.00022 kPa
989 K | 0.001514 ± 0.00019 kPa and 0.00123 ± 0.00019 kPa and 0.001585 ± 0.00019 kPa
995 K | 0.00195 ± 0.00028 kPa and 0.001778 ± 0.00029 kPa
996 K | 0.001585 ± 0.00029 kPa and 0.00195 ± 0.00028 kPa
997 K | 0.00195 ± 0.00028 kPa and 0.001778 ± 0.00028 kPa
998 K | 0.001778 ± 0.00027 kPa and 0.001622 ± 0.00026 kPa
999 K | 0.002089 ± 0.00027 kPa
1004 K | 0.00257 ± 0.00029 kPa and 0.002399 ± 0.00029 kPa
1006 K | 0.002512 ± 0.00035 kPa and 0.002089 ± 0.00035 kPa and 0.00257 ± 0.00035 kPa
1007 K | 0.002188 ± 0.00033 kPa and 0.002399 ± 0.00034 kPa
1008 K | 0.002399 ± 0.00032 kPa
1009 K | 0.002818 ± 0.0002 kPa
1013 K | 0.003311 ± 0.00034 kPa and 0.00309 ± 0.00034 kPa
1016 K | 0.003162 ± 0.00036 kPa
1017 K | 0.002951 ± 0.00034 kPa and 0.003388 ± 0.00036 kPa
1018 K | 0.003236 ± 0.0003 kPa and 0.00302 ± 0.0003 kPa and 0.003548 ± 0.0003 kPa
1023 K | 0.004074 ± 0.00026 kPa
1026 K | 0.004074 ± 0.00082 kPa
1027 K | 0.003981 ± 0.00082 kPa and 0.003802 ± 0.00082 kPa and 0.005012 ± 0.0008 kPa
1028 K | 0.00389 ± 0.00092 kPa
1038 K | 0.007244 ± 0.0013 kPa

[Cl][Lu]([Cl])[Cl] [lutetium trichloride]
Conditions | vapor or sublimation pressure
942 K | 6.3e-05 ± 6e-06 kPa
945 K | 7.9e-05 ± 1.6e-05 kPa
946 K | 7.9e-05 ± 1.6e-05 kPa
953 K | 7.9e-05 ± 1e-05 kPa
955 K | 0.000126 ± 1.5e-05 kPa
958 K | 0.00011 ± 2.5e-05 kPa
959 K | 0.000126 ± 2.1e-05 kPa
963 K | 0.000141 ± 1.9e-05 kPa
968 K | 0.000158 ± 2.5e-05 kPa
969 K | 0.000191 ± 2.4e-05 kPa
970 K | 0.000158 ± 2.4e-05 kPa
976 K | 0.000219 ± 3.4e-05 kPa
978 K | 0.000251 ± 5.4e-05 kPa
981 K | 0.000251 ± 4.4e-05 kPa
982 K | 0.000316 ± 4.2e-05 kPa
984 K | 0.000347 ± 3.9e-05 kPa
991 K | 0.00038 ± 3.5e-05 kPa and 0.000407 ± 3.5e-05 kPa
992 K | 0.00038 ± 3.4e-05 kPa
998 K | 0.000468 ± 7.9e-05 kPa and 0.00055 ± 7.9e-05 kPa
1001 K | 0.000603 ± 8.2e-05 kPa
1002 K | 0.000562 ± 8.3e-05 kPa
1004 K | 0.000617 ± 9.3e-05 kPa and 0.000575 ± 9.4e-05 kPa
1005 K | 0.000631 ± 9.3e-05 kPa
1012 K | 0.000794 ± 0.00012 kPa
1013 K | 0.000912 ± 0.00011 kPa
1016 K | 0.000933 ± 0.00013 kPa
1017 K | 0.001 ± 0.00014 kPa and 0.000912 ± 0.00015 kPa
1018 K | 0.000977 ± 0.00012 kPa
1024 K | 0.00123 ± 0.00017 kPa
1029 K | 0.001445 ± 0.00023 kPa
1030 K | 0.001445 ± 0.00023 kPa
1031 K | 0.001622 ± 0.00022 kPa
1032 K | 0.001622 ± 0.00022 kPa
1033 K | 0.00166 ± 0.00022 kPa and 0.001778 ± 0.00022 kPa
1042 K | 0.002239 ± 0.00029 kPa and 0.002188 ± 0.00029 kPa and 0.002138 ± 0.00028 kPa
1046 K | 0.00263 ± 0.00029 kPa
1047 K | 0.002692 ± 0.00034 kPa
1048 K | 0.002818 ± 0.00034 kPa
1050 K | 0.002951 ± 0.00035 kPa
1051 K | 0.002951 ± 0.00034 kPa
1053 K | 0.003162 ± 0.00032 kPa
1058 K | 0.003631 ± 0.0004 kPa
1059 K | 0.003548 ± 0.0004 kPa
1060 K | 0.003715 ± 0.0004 kPa and 0.003981 ± 0.0004 kPa
1062 K | 0.00389 ± 0.00049 kPa
1066 K | 0.004467 ± 0.0006 kPa
1071 K | 0.00537 ± 0.00072 kPa and 0.004898 ± 0.00034 kPa
1075 K | 0.005495 ± 0.00046 kPa and 0.00537 ± 0.0004 kPa
